# Data as given in publication PMC7449217, “The FDA-Approved Drug Nelfinavir Inhibits Lytic Cell-Free but Not Cell-Associated Nonlytic Transmission of Human Adenovirus” (Antimicrobial Agents and Chemotherapy, 2020).
# Structures can show the parent of a compound that is named as a salt.
# Experiments:
# HSV-1-CMV-GFP = experiment: fluorescence-based plaque-forming assay, A549 cells; assay type: cell-based, herpes simplex virus 1
# Description: (§1) Per 96-well plate, 15,000 A549 cells, 10,000 HeLa cells, 30,000 HBECs, 30,000 HCE cells, or 30,000 CMT-93 cells were seeded in 100 μl of the respective supplemented medium and allowed to settle for 1 h at room temperature (RT) prior to cell culture incubation at 37°C with 5% CO2 and 95% humidity. The following day, the medium was replaced with 50 μl of the respective virus stock dilution giving rise to 5 to 50 plaques per 96-well plate. Fifty microliters of nelfinavir to obtain a 0.1 to 50 μM final concentration or the DMSO solvent control was also added, both in supplemented medium. For each experiment, a noninfected, treated control was performed. […] Plates were imaged on either an IXM-XL or an IXM-C automated high-throughput fluorescence microscope (Molecular Devices, San Jose, CA, USA) using a 4× objective in wide-field mode. Hoechst staining was recorded in the 4′,6-diamidino-2-phenylindole (DAPI) channel, the fluorescein isothiocyanate (FITC)/GFP channel was acquired for viral GFP, and the tetramethyl rhodamine isothiocyanate (TRITC)/Texas Red channel was acquired for hexon immunofluorescence staining.
# (§2) The infection phenotype for each well was quantified using Plaque2.0 ([101]). The number of plaques was determined based on the infection signal (viral GFP or hexon immunofluorescence staining). […] The mean TI50 was calculated as the EC50/TC50 ratio of the means. […]
# HAdV-C2-dE3B-GFP-dADP = experiment: fluorescence-based plaque-forming assay, HeLa cells; assay type: cell-based, human adenovirus; conditions: for TI50 (TC50/IC50): HAdV-C2-dE3B-GFP-dADP in HeLa, 5 dpi, GFP
# Description: (§3) Per 96-well plate, 15,000 A549 cells, 10,000 HeLa cells, 30,000 HBECs, 30,000 HCE cells, or 30,000 CMT-93 cells were seeded in 100 μl of the respective supplemented medium and allowed to settle for 1 h at room temperature (RT) prior to cell culture incubation at 37°C with 5% CO2 and 95% humidity. The following day, the medium was replaced with 50 μl of the respective virus stock dilution giving rise to 5 to 50 plaques per 96-well plate. Fifty microliters of nelfinavir to obtain a 0.1 to 50 μM final concentration or the DMSO solvent control was also added, both in supplemented medium. For each experiment, a noninfected, treated control was performed. For uphill plaque assays, the medium volume was increased to 150 μl with identical virus and drug concentrations. For wash-in/washout experiments, the virus was incubated on cells in supplemented medium for 1 h at 37°C, cells were washed with PBS, and a 100-μl drug dilution in supplemented medium was added. All experiments were performed in four technical replicates or as indicated. Cells were incubated under standard cell culture conditions. At the indicated times postinfection, the cells were fixed, and the nuclei were stained for 1 h at RT by the addition of 33 μl 16% (wt/vol) paraformaldehyde (PFA) and 4 μg/ml Hoechst 33342 (Sigma-Aldrich, St. Louis, MO, USA) in PBS. Cells were washed three times with PBS and stored in PBS supplemented with 0.02% N3 for infections with viruses harboring a GFP transgene. For wild-type (wt) viruses, cells were quenched in PBS supplemented with 50 mM NH4Cl, permeabilized using 0.2% (vol/vol) Triton X-100 in PBS, and blocked with 0.5% (wt/vol) bovine serum albumin (BSA) in PBS. Cells were incubated with 381.7 ng/ml mouse anti-HAdV hexon protein antibody (Mab8052; Sigma-Aldrich, St. Louis, MO, USA) and subsequently stained using 2 μg/ml goat anti-mouse-Alexa Fluor 594 (catalog number A21203 or A32742; Thermo Fisher Scientific, Waltham, MA, USA). Plates were imaged on either an IXM-XL or an IXM-C automated high-throughput fluorescence microscope (Molecular Devices, San Jose, CA, USA) using a 4× objective in wide-field mode. Hoechst staining was recorded in the 4′,6-diamidino-2-phenylindole (DAPI) channel, the fluorescein isothiocyanate (FITC)/GFP channel was acquired for viral GFP, and the tetramethyl rhodamine isothiocyanate (TRITC)/Texas Red channel was acquired for hexon immunofluorescence staining.
# (§4) The infection phenotype for each well was quantified using Plaque2.0 ([101]). The number of plaques was determined based on the infection signal (viral GFP or hexon immunofluorescence staining). Nuclei stained with Hoechst were segmented by using CellProfiler ([178]). Infected nuclei were classified based on the median infection signal per nucleus in CellProfiler. Data were plotted, and the EC50 (infected and treated cells), the TC50 (noninfected, treated cells), as well as the corresponding standard errors (SE) were determined using curve fitting in GraphPad (version 8.1.2; GraphPad Software, Inc.) using three-parameter inhibitor concentration-versus-response nonlinear regression. The mean TI50 was calculated as the […] ratio of the means. The TI50 SE was calculated by error propagation.
# HAdV-C2-dE3B-GFP [1] = experiment: as above; assay type: cell-based, human adenovirus; conditions: for TI50 (TC50/IC50): HAdV-C2-dE3B-GFP in HeLa, 4 dpi, GFP
# Description: as §3, §4
# CMT-93 cells = experiment: TC50, number of nuclei in noninfected treated cells; assay type: cell-based, mouse; conditions: noninfected CMT-93, nuclei, 4 dpi
# Description: as §1, §2
# HIV aspartyl protease = test system: HIV aspartyl protease; design: method as in PMID 9397180, PMID 9725550; conditions: cited from earlier work
# HAdV-C2-dE3B-GFP [2] = experiment: microbe, parasite or virus in culture; assay type: cell-based, human adenovirus; conditions: for EC50: Human adenovirus sp.
# Description: as §3, §4
compound,measurement,setting,value
"Cc1c(O)cccc1C(=O)N[C@@H](CSc1ccccc1)[C@H](O)CN1C[C@H]2CCCC[C@H]2C[C@H]1C(=O)NC(C)(C)C [Nelfinavir, Nelfinavir mesylate]",TI50 (TC50/IC50),"HSV-1-CMV-GFP; HSV-1-CMV-GFP in A549, 1 dpi, GFP",17.25
same,EC50,"HSV-1-CMV-GFP; Human alphaherpesvirus 1, A549",2870 nM
same,TI50 (TC50/IC50),HAdV-C2-dE3B-GFP-dADP,8.91
same,TI50 (TC50/IC50),HAdV-C2-dE3B-GFP-dADP; listed as nelfinavir,8.9
same,EC50,"HAdV-C2-dE3B-GFP-dADP; Human adenovirus sp., HeLa",4680 nM
same,TI50 (TC50/IC50),HAdV-C2-dE3B-GFP [1],61.03
same,TI50 (TC50/IC50),HAdV-C2-dE3B-GFP [1]; listed as nelfinavir,61.0
same,EC50,"HAdV-C2-dE3B-GFP [1]; Human adenovirus sp., HeLa",490 nM
same,TC50,CMT-93 cells; line MAdV-1-pIX-FS2A-GFP,21290 nM
same,TC50,CMT-93 cells; line MAdV-3-pIX-FS2A-GFP,26070 nM
same,inhibitory concentration,HIV aspartyl protease,low-nanomolar range
same,TI50 (TC50/IC50),"HAdV-C2-dE3B-GFP [2]; HAdV-C2-dE3B-GFP in A549, 3 dpi, GFP",66.80
same,TI50 (TC50/IC50),"HAdV-C2-dE3B-GFP [2]; HAdV-C2-dE3B-GFP in A549, 3 dpi, GFP, listed as nelfinavir",66.8
same,TI50 (TC50/IC50),"HAdV-C2-dE3B-GFP [2]; HAdV-C2-dE3B-GFP in A549, 4 dpi, GFP",29.43
same,TI50 (TC50/IC50),"HAdV-C2-dE3B-GFP [2]; HAdV-C2-dE3B-GFP in A549, 4 dpi, Hexon",29.87
same,EC50,"HAdV-C2-dE3B-GFP [2]; A549, HAdV-C2-dE3B-GFP in A549, fixation 3 dpi (72 hpi), read-out GFP, plaque numbers",220 nM
same,EC50,"HAdV-C2-dE3B-GFP [2]; A549, HAdV-C2-dE3B-GFP in A549, fixation 4 dpi, read-out GFP, plaque numbers",440 nM
same,EC50,"HAdV-C2-dE3B-GFP [2]; A549, HAdV-C2-dE3B-GFP in A549, fixation 4 dpi, read-out Hexon, plaque numbers",430 nM
same,EC50,"HAdV-C2-dE3B-GFP [2]; A549, read-out: EC50 of fluorescent-plaque formation, HAdV-C2-dE3B-GFP, A549 cells, 82 hpi, plaque numbers",370 nM
same,median therapeutic index (TI50),"HAdV-C2-dE3B-GFP [2]; ratio TC50 (nuclei) / EC50 (plaques), A549 cells, 82 hpi",27.1
